Data as given in patent publication US20090170880A1, “Methods and Means for the Treatment of Cancer” (priority 2007, published 2009).
Entries after “also recorded” stand apart in the source; their conditions may differ. Where two headings read alike, the source gives them in different places.

Legend:
[1] = tested on: intracranial Mel57-luc tumor xenografts; experiment: Efficacy against intracranial Mel57-luc tumor xenografts; assay type: in vivo, nude mice
Description: Intracranial Mel57-luc (luciferase transfected subline) tumor xenografts in wild-type nude mice (WT) and mdr1ab knockout nude mice (MDR) were established according to the protocol below (see Kemper et al, Eur J Cancer 42:3294-3303, 2006).
The Mel57 cell line (University Medical Centre, Nijmegen, The Netherlands) is a human melanoma cell line and was cultured in MEM (Life Technologies Inc., Breda, The Netherlands) supplemented with 10% foetal calf serum, non-essential amino acids, streptomycin, penicillin and sodium pyruvate (all Life Technologies), and incubated at 37° C. and 5% CO2 in humidified air. The cell line was further transfected by standard protocols with lipofectamine using a pBS vector containing a β-actin driven luciferase gene coupled via an internal ribosome […] to GFP. After expansion, GFP bright cells were sorted to single cells by FACS, expanded and sublines tested for luciferase expression by an in vitro bioluminescence assay (Promega, Benelux BV, Leiden, The Netherlands). Three to five sublines showing the highest luminescence activity were tested in vivo for tumour take and intracranial growth behaviour. To retrieve tumour cells for injection, the cell culture was trypsinised (trypsin 0.05%; EDTA 0.02%, Life Technologies), washed two times with Hanks Balanced Saline Solution (HBSS, Life Technologies Inc.), counted and resuspended in an appropriate volume of HBSS. The single cell suspension was kept on ice until injection. […]
Mel57-luc cells (100,000 cells/2 μl) were injected stereotactically in the brain as described in detail in Kemper et al^14. […] The amount of bioluminescence in each animal was calculated relative to the first measurement when therapy was initiated (arbitrarily set at 100%) and was log converted prior to data analysis. Tumor volume was measured by bioluminescence activity (see Kemper et al, Eur J Cancer 42:3294-3303, 2006).

[2] = Plasma exposure of oral temozolomide in mice; assay type: in vivo; details: mouse, 100 mg/kg, read-out: AUC0-7 h, plasma
Description: We also established the drug exposure in wild-type (n=18) and Bcrp1/Mdr1ab knockout mice (n=19) receiving an oral dose of 100 mg/kg by gavage. Blood was sampled from the tail at 15, 30 min and 1, 4 and 7 h post drug administration to obtain a full curve from each animal.
Plasma and brain AUC0-7h values and standard errors were calculated by the linear trapezoidal rule using standard equations (14). The plasma half-life of temozolomide was calculated by linear regression analysis after log transformation of the concentration data using Microsoft Excel 2003. The brain-to-plasma ratio was calculated for each individual animal. The two-sided unpaired Student's t-test was used for statistical analysis of AUC values. Bonferroni's test for multiple comparisons was calculated using SPSS (v12.0.1; SPSS Inc, Chicago, Ill., USA) for brain and plasma levels and brain-to-plasma ratios determined at 2 h post temozolomide administration with the inhibitors and for analyzing the results of the in vivo efficacy study.

With `Cn1nnc2c(C(N)=O)ncn2c1=O` [temozolomide, 8-carbamoyl-3-methyl-[3H]-imidazo[5,1-d]-1,2,3,5-tetrazin-4-one] the “response to temozolomide, P-gp (Mdr1ab) knockout versus wild-type nude mice” value ([1]; oral 100 mg/kg for 5 consecutive days, bioluminescence, 100 mg/kg) was “greater reduction in tumor volume; also recorded: respond better”, the “difference in efficacy, Bcrp1/Mdr1ab knockout versus wild-type nude mice” value ([1]; oral 100 mg/kg/day×5 from day 7, bioluminescence) was “more pronounced” and the AUC(0-t) ([2]; Bcrp, Mdr1ab knockout mice) was 164 ± 4.5 µg·h/mL. For the same compound, the AUC(0-t) ([2]; Wild-type mice) was 154 ± 4.1 µg·h/mL.
